We go through 32 compounds from patent US20020007060A1, “Reverse hydroxamate inhibitors of matrix metalloproteinases” (priority 1998, published 2002).

Each structure is given as a SMILES string. Where a name gives a salt, the structure may show the parent alone.

The term melting point denotes the temperature of the solid-liquid transition. For `CC1(C)CC(=O)N(CC(COc2ccc(-c3ccc(C#N)cc3)cc2)N(O)C=O)C(=O)C1` (centres unmarked) (as salt: potassium) [Example 50, N-[1-[[(4′-cyano[1,1′-biphenyl]-4-yl)oxy]methyl]-2-(4,4-dimethyl-2,6-dioxo-1-piperidinyl)ethyl]-N-hydroxyformamide], the melting point came to 121 °C.

In turn, `N#Cc1ccc(-c2ccc(OCC(COc3ccccc3)N(O)C=O)cc2)cc1` (racemic) [Example 1, (±)-N-[1-[[(4′-cyano-[1,1′-biphenyl]-4-yl)oxy]methyl]-2-phenoxyethyl]-N-hydroxyformamide] came in with a melting point of 133 to 135 °C.

`N#Cc1ccc(-c2ccc(OCC(CN3C(=O)c4ccccc4C3=O)N(O)C=O)cc2)cc1` (racemic) [Example 3, (±)-N-[1-[[(4′-cyano-[1,1′-biphenyl]-4-yl)oxy]methyl]-2-(2,3-dihydro-1,3-dioxo-1H-isoindol-2-yl)ethyl]-N-hydroxyformamide] came in with a melting point of 199 to 202 °C.

The compound `CCC(C)C(COc1ccc(-c2ccc(C#N)cc2)cc1)N(O)C=O` (racemic) [Example 8, (±)-N-[1-[[(4′-cyano-[1,1′-biphenyl]-4-yl)oxy]methyl]-2-methylbutyl]-N-hydroxyformamide] showed a melting point of 96 to 98 °C.

The compound `CCCCC(COc1ccc(-c2ccc(C#N)cc2)cc1)N(O)C=O` (racemic) [Example 9, (±)-N-[1-[[(4′-cyano-[1,1′-biphenyl]-4-yl)oxy]methyl]pentyl]-N-hydroxyformamide] showed a melting point of 105 to 108 °C.

Take `Cc1ccc(CC(COc2ccc(-c3ccc(C#N)cc3)cc2)N(O)C=O)cc1` (racemic) [Example 10, (±)-N-[1-[[(4′-cyano-[1,1′-biphenyl]-4-yl)oxy]methyl]-2-(4-methylphenyl)ethyl]-N-hydroxyformamide]: the melting point is 173 to 175 °C.

In turn, `N#Cc1ccc(-c2ccc(OCC(c3ccc(F)cc3)N(O)C=O)cc2)cc1` (racemic) [Example 11, (±)-N-[2-[(4′-cyano-[1,1′-biphenyl]-4-yl)oxy]-1-(4-fluorophenyl)ethyl]-N-hydroxyformamide] returned a melting point of 194 to 196 °C.

`CC(COc1ccc(-c2ccc(C#N)cc2)cc1)N(O)C=O` (racemic) [Example 13, (±)-N-[1-[[(4′-cyano-[1,1′-biphenyl]-4-yl)oxy]methyl]ethyl]-N-hydroxyformamide] yielded a melting point of 141 to 144 °C.

`O=CN(O)C(CS(=O)(=O)c1ccc(-c2ccc(C(F)(F)F)cc2)cc1)c1cccnc1` (racemic) [Example 120, (±)-N-hydroxy-N-[1-(3-pyridinyl)-2-[[4′-(trifluoromethyl)[1,1′-biphenyl]-4-yl]sulfonyl]ethyl]formamide] returned a melting point of 186.5 to 188.8 °C.

Regarding `CC(CS(=O)(=O)c1ccc(-c2ccc(C(F)(F)F)cc2)cc1)N(O)C=O` (racemic) [Example 122, (±)-N-hydroxy-N-[1-methyl-2-[[4′-(trifluoromethyl)[1,1′-biphenyl]-4-yl]sulfonyl]ethyl]formamide], the melting point lay within 174.6 to 175.2 °C.

The compound `O=CN(O)C(CS(=O)(=O)c1ccc(-c2ccc(C(F)(F)F)cc2)cc1)c1ccccn1` (racemic) [Example 123, (±)-N-hydroxy-N-[1-(2-pyridinyl)-2-[[4′-(trifluoromethyl) [1,1′-biphenyl]-4-yl]sulfonyl]ethyl]formamide] displayed a melting point of 168.5 to 168.9 °C.

Regarding `CC1(C)CC(=O)N(CC(CS(=O)(=O)c2ccc(-c3ccc(C(F)(F)F)cc3)cc2)N(O)C=O)C(=O)C1` (racemic) [Example 124, (±)-N-[1-[(4,4-dimethyl-2,6-dioxo-1-piperidinyl)methyl]-2-[[4′-(trifluoromethyl)[1,1′-biphenyl]-4-yl]sulfonyl]ethyl]-N-hydroxyformamide], the melting point lay within 185.6 to 187.3 °C.

The compound `O=CN(O)C(CCO)CS(=O)(=O)c1ccc(-c2ccc(C(F)(F)F)cc2)cc1` (racemic) [Example 125, (±)-N-hydroxy-N-[3-hydroxy-1-[[[4′-(trifluoromethyl)[1,1′-biphenyl]-4-yl]sulfonyl]methyl]propyl]formamide] registered a melting point of 186.5 to 188.8 °C.

As to `COCC(CS(=O)(=O)c1ccc(-c2ccc(C(F)(F)F)cc2)cc1)N(O)C=O` (racemic) [Example 126, (±)-N-hydroxy-N-[1-(methoxymethyl)-2-[[4′-(trifluoromethyl)[1,1′-biphenyl]-4-yl]sulfonyl]ethyl]formamide], the melting point was 175.3 to 176.3 °C.

`O=CN(O)C(CS(=O)(=O)c1ccc(-c2ccc(C(F)(F)F)cc2)cc1)c1ccc2c(c1)OCO2` (racemic) [Example 127, (±)-N-[1-(1,3-benzodioxol-5-yl)-2-[[4′-(trifluoromethyl)[1,1′-biphenyl]-4-yl]sulfonyl]ethyl]-N-hydroxyformamide] displayed a melting point of 159.5 to 160.5 °C.

Compound `O=CN(O)C(CCCO)CS(=O)(=O)c1ccc(-c2ccc(C(F)(F)F)cc2)cc1` (racemic) [Example 128, (±)-N-hydroxy-N-[4-hydroxy-1-[[[4′-(trifluoromethyl)[1,1′-biphenyl]-4-yl]sulfonyl]methyl]butyl]formamide] displayed a melting point of 138.9 to 140.3 °C.

Compound `COCOc1ccc(C(CS(=O)(=O)c2ccc(-c3ccc(C(F)(F)F)cc3)cc2)N(O)C=O)cc1` (racemic) [Example 129, (±)-N-hydroxy-N-[1-[4-(methoxymethoxy)phenyl]-2-[[4′-(trifluoromethyl)[1,1′-biphenyl]-4-yl]sulfonyl]ethyl]formamide] displayed a melting point of 137.1 to 138.5 °C.

In turn, `O=CN(O)C(CO)CS(=O)(=O)c1ccc(Oc2ccc(OC(F)(F)F)cc2)cc1` (racemic) [Example 138, (±)-N-hydroxy-N-[1-(hydroxymethyl)-2-[[4-[4-(trifluoromethoxy)phenoxy]phenyl]sulfonyl]ethyl]formamide] had a melting point of 115 to 117 °C.

`CS(=O)(=O)c1ccc(-c2ccc(S(=O)(=O)CC(CO)N(O)C=O)cc2)cc1` (racemic) [Example 148, (±)-N-hydroxy-N-[1-(hydroxymethyl)-2-[[4′-(methylsulfonyl)[1,1′-biphenyl]-4-yl]sulfonyl]ethyl]formamide]: the melting point lay within 165 to 167 °C.

Take `CSc1ccc(-c2ccc(S(=O)(=O)CC(CO)N(O)C=O)cc2)cc1` (racemic) [Example 150, (±)-N-hydroxy-N-[1-(hydroxymethyl)-2-[[4′-(methylthio)[1,1′-biphenyl]-4-yl]sulfonyl]ethyl]formamide]: the melting point was in the range of 161 to 162 °C.

Take `O=CN(O)C(CO)CS(=O)(=O)c1ccc(-c2ccc(OC(F)(F)F)cc2)cc1` (racemic) [Example 151, (±)-N-hydroxy-N-[1-(hydroxymethyl)-2-[[4′-(trifluoromethoxy)[1,1′-biphenyl]-4-yl]sulfonyl]ethyl]formamide]: the melting point is 167 to 168 °C.

As to `O=CN(O)C(CO)CS(=O)(=O)c1ccc(-c2ccc(Cl)cc2)cc1` (racemic) [Example 152, (±)-N-hydroxy-N-[1-(hydroxymethyl)-2-[(4′chloro[1,1′-biphenyl]-4-yl)sulfonyl]ethyl]formamide], the melting point is 153 to 154 °C.

On to `CN1C(=O)N(CC(CS(=O)(=O)c2ccc(Oc3ccc(C(F)(F)F)cc3)cc2)N(O)C=O)C(=O)C1(C)C` (racemic) [Example 153, (±)-N-[1-[(2,5-dioxo-3,4,4-trimethyl-1-imidazolidinyl)methyl]-2-[[4-[4-(trifluoromethyl)phenoxy]phenyl]sulfonyl]ethyl]-N-hydroxyformamide], for which the melting point is 141 to 143 °C.

As for `O=CN(O)C(CS(=O)(=O)c1ccc(-c2ccc(OC(F)(F)F)cc2)cc1)c1ccccn1` (racemic) [Example 186, (±)-N-hydroxy-N-[1-(2-pyridinyl)-2-[[4′-(trifluoromethoxy)[1,1′-biphenyl]-4-yl]sulfonyl]ethyl]formamide], the melting point was 116.4 to 117.6 °C.

With `N#Cc1ccc(-c2ccc(OCCN(O)C=O)cc2)cc1` [Example 15, N-[2-[(4′-cyano-[1,1′-biphenyl]-4-yl)oxy]ethyl]-N-hydroxyformamide], the melting point is 142 to 145 °C.

For `CN1C(=O)N(CC(COc2ccc(-c3cccc(C#N)c3)cc2)N(O)C=O)C(=O)C1(C)C` (centres unmarked) [Example 39, N-[1-[[(3′-cyano[1,1′-biphenyl]-4-yl)oxy]methyl]-2-(3,4,4-trimethyl-2,5-dioxo-1-imidazolidinyl)ethyl]-N-hydroxyformamide], the melting point was in the range of 130 to 132 °C.

`CSc1ccc(-c2ccc(OCC(CN3C(=O)N(C)C(C)(C)C3=O)N(O)C=O)cc2)cc1` (centres unmarked) [Example 40, N-[1-[[[4′-(methylthio)[1,1′-biphenyl]-4-yl]oxy]methyl]-2-(3,4,4-trimethyl-2,5-dioxo-1-imidazolidinyl)ethyl]-N-hydroxyformamide] returned a melting point of 172 to 174 °C.

On to `CC1(C)NC(=O)N(CCC(COc2ccc(-c3ccc(C#N)cc3)cc2)N(O)C=O)C1=O` (centres unmarked) [Example 47, N-[1-[[(4′-cyano[1,1′-biphenyl]-4-yl)oxy]methyl]-3-(4,4-dimethyl-2,5-dioxo-1-imidazolidinyl)propyl]-N-hydroxyformamide], for which the melting point is 202 to 204 °C.

Consider `N#Cc1cccc(-c2ccc(OCC(CN3C(=O)CCC3=O)N(O)C=O)cc2)c1` (centres unmarked) [Example 49, N-[1-[[(3′-cyano[1,1′-biphenyl]-4-yl)oxy]methyl]-2-(2,5-dioxo-1-pyrrolidinyl)ethyl]-N-hydroxyformamide], for which the melting point turned out to be 128 °C.

For `CC(CS(=O)(=O)c1ccc(-c2ccc(Cl)cc2)cc1)N(O)C=O` (centres unmarked) [Example 72, N-[1-[[(4′-chloro[1,1′-biphenyl]-4-yl)sulfonyl]methyl]ethyl]-N-hydroxyformamide], the melting point was 178 to 180 °C.

Consider `CC(CS(=O)(=O)c1ccc(-c2ccc3c(c2)OCO3)cc1)N(O)C=O` (centres unmarked) [Example 73, N-[1-[[[4-(1,3-benzodioxol-5-yl)phenyl]sulfonyl]methyl]ethyl]-N-hydroxyformamide], for which the melting point is 200 to 201 °C.

`CC(CS(=O)(=O)c1ccc(Oc2ccc(Cl)cc2)cc1)N(O)C=O` (centres unmarked) [Example 74, N-[1-[[[4-(4-chlorophenoxy)phenyl]sulfonyl]methyl]ethyl]-N-hydroxyformamide] returned a melting point of 144 to 145 °C.
